How the values were obtained:
[1] = test system: glucagon secretion; conditions: cited from earlier work
Source text: We next investigated the effects of GIP108 and NN‐GIPR‐Ant administration on insulin sensitivity.

[2] = test system: human adipocytes; conditions: acute administration; ex vivo and in vivo glucose uptake; cited from earlier work
Source text: Another important focus of this study was the effect of GIP108 and NN‐GIPR‐Ant administration on insulin sensitivity.

[3] = human study, 6‐day GIP infusion; cited from earlier work
Source text: We also investigated the effects of GIPR agonism and antagonism on liver triglyceride content.

[4] = test system: osteoblastic and osteoclastic activity; conditions: cited from earlier work
[5] = test system: CTX; conditions: rodent models and humans; cited from earlier work
[6] = test system: mouse GIPR; experiment: HTRF cAMP assay, AD293 cells transiently transfected with mGIPR; assay type: cell-based; conditions: 30 min, n = 3
Source text: For the antagonist we used a long‐acting GIPR antagonist, named throughout as NN‐GIPR‐Ant, previously characterised by Yang et al.[7] We first confirmed the actions of NN‐GIPR‐Ant as a mouse GIPR antagonist, performing in vitro cAMP assays in AD293 cells, a human embryonic kidney cell line commonly used in G‐protein coupled receptor research due to rapid division and ease of receptor transfection.
(A–C) Amino acid sequences of hGIP (A), GIP108 (B) and NN‐GIPR‐Ant (C). AIB = 2‐aminoisobutyric acid. Side chains denote fatty acid tails. (D–F) cAMP measurements in AD293 cells transiently transfected with the mGIPR (D), mGLP‐1R (E) and mGCGR (F) and stimulated for 30 min with the indicated peptide (n = 3), with three parameter curve fits plotted. (G, H) 60‐min intraperitoneal glucose tolerance test in lean mice (n = 8). (G) Plasma glucose over time with glucose ± hGIP injected at t = 0 and NN‐GIPR‐Ant injected at t = −120 min, analysed using two‐way ANOVA with time and subgroup as co‐variables. (H) Glucose AUC derived from the time course in (H), analysed using a one‐way ANOVA. Dunnett's test was used to correct for multiple comparisons against vehicle control. […] The colour of the star denotes which group is statistically different compared to vehicle control. […]

[7] = test system: GIPR; experiment: Intraperitoneal glucose tolerance test in lean mice, hGIP with NN-GIPR-Ant (in vivo antagonism); set-up: species or system mouse; conditions: n = 8, hGIP 50 nmol/kg with glucose 2 g/kg at t = 0
Experimental: (A–C) Amino acid sequences of hGIP (A), GIP108 (B) and NN‐GIPR‐Ant (C). AIB = 2‐aminoisobutyric acid. Side chains denote fatty acid tails. (D–F) cAMP measurements in AD293 cells transiently transfected with the mGIPR (D), mGLP‐1R (E) and mGCGR (F) and stimulated for 30 min with the indicated peptide (n = 3), with three parameter curve fits plotted. (G, H) 60‐min intraperitoneal glucose tolerance test in lean mice (n = 8). (G) Plasma glucose over time with glucose ± hGIP injected at t = 0 and NN‐GIPR‐Ant injected at t = −120 min, analysed using two‐way ANOVA with time and subgroup as co‐variables. (H) Glucose AUC derived from the time course in (H), analysed using a one‐way ANOVA. Dunnett's test was used to correct for multiple comparisons against vehicle control. […] The colour of the star denotes which group is statistically different compared to vehicle control.
All animal procedures were approved by the British Home Office under the UK Animals (Scientific Procedures) Act 1986, and Amendment Regulations, 2012 and approved by the Imperial College London Animal Welfare and Ethical Review Body. Wild type male C57BL/6J mice (8-14 weeks; Charles River, UK) were used. […]
Mice were fasted at 08:00. […] Total glucose AUC was calculated by trapezoidal rule using y=0 as baseline. Glucose readings were measured in mmol/L using the same ISO15197-compliant GlucoRx Nexus (GlucoRx, Guildford, UK) glucometer.

[8] = test system: humans; conditions: ref 12 (as cited in b3; abstract prints none); cited from earlier work

Substance: glucose‐dependent insulinotropic polypeptide [GIP]
- glucagon secretion in hypoglycaemia [1]: potently stimulate glucagon secretion in hypoglycaemia
- insulin sensitising effect in human adipocytes [2]: increasing adipocyte glucose uptake both ex vivo and in vivo
- liver fat [3]: increased liver fat
- osteoblastic and osteoclastic activity [4]: increases osteoblastic and suppresses osteoclastic activity
- CTX levels, acute [5]: acutely lowers CTX levels

Substance: hGIP: hGIP(1‐42); sequence in Figure 1A (YAEGTFISDYSIAMDKIHQQDFVNWLLAQKGKKNDWKHNITQ; Gastric inhibitory polypeptide; UniProt P09681 52-93, looked up)
- stimulation of cAMP at mouse GIPR [6]: ability to stimulate cAMP
- improvement of glucose tolerance by hGIP [7]: improve glucose tolerance

Substance: maridebart cafraglutide: Amgen's high‐affinity GIPR antagonist antibody with GLP‐1R agonist conjugate arms
- weight loss effects in humans [8]: significant weight loss effects in humans

— publication PMC12803606, “A metabolic comparison of GIPR agonism versus GIPR antagonism in male mice” (Diabetes, Obesity & Metabolism, 2025)
